Patent publication US8729082B2, “Substituted imidazoquinoxalines” (Bayer Intellectual Property GmbH, priority 2009, dated 2014)

Biological target: T1, human kinase Mps-1 (Homo sapiens, UniProt P33981)
T1 construct: N-terminally GST-tagged human full length recombinant Mps-1 kinase; purchased Invitrogen, Karslruhe, Germany PV4071
T1 sequence (P33981 1-857): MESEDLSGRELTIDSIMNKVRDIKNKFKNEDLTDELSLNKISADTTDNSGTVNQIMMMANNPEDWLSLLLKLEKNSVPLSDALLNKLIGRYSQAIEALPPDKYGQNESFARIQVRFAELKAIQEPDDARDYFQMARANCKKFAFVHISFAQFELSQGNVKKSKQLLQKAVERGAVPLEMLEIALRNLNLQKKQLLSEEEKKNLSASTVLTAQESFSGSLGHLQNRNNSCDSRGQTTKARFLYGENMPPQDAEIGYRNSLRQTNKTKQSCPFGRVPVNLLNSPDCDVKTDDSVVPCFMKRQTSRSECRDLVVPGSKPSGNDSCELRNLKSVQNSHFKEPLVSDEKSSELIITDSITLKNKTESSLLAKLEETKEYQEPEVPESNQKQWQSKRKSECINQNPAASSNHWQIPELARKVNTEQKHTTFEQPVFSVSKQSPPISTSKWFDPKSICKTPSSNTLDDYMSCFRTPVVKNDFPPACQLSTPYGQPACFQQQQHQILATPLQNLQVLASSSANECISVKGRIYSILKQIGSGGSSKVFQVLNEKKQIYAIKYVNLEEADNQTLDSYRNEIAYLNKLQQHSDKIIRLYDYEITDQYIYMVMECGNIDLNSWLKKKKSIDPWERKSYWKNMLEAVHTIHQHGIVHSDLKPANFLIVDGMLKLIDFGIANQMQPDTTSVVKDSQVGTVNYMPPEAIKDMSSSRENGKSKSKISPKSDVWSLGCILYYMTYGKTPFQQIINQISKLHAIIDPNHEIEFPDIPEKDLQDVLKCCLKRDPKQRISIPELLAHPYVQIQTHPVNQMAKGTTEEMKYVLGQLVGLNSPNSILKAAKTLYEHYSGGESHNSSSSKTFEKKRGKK
Experiment: Mps-1 kinase assay (HTRF)
Type: biochemical
Settings: lowATP; mean; read-out: Mps1 lowATP mean IC50
How it was run: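 HTRF readout: EDTA-stopped reactions incubated 1 h with europium anti-phospho(Ser/Thr) antibody and streptavidin-XLent, emission ratio 665/620 nm after 350 nm excitation. Kinase step: compound pre-bound 15 min to ~1 nM GST-Mps-1, then 60 min at 22 °C with ATP and biotin-peptide substrate; inhibition scaled between no-inhibitor (0%) and no-enzyme (100%) controls.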

**Q.** How did the IC50 turn out when CNC(=O)Nc1ccc(-c2cnc3c(NCC(F)(F)F)nc4ccc(F)cc4n23)cc1 [Example 2-64, 1-(4-{8-fluoro-4-[(2,2,2-trifluoroethyl)amino]imidazo[1,2-a]quinoxalin-1-yl}phenyl)-3-methylurea] was run?
**A.** 6700 nM

**Q.** For CNC(=O)Nc1ccc(-c2cnc3c(NCCCO)nc4ccc(F)cc4n23)cc1 [Example 2-65, 1-(4-{8-fluoro-4-[(3-hydroxypropyl)amino]imidazo[1,2-a]quinoxalin-1-yl}phenyl)-3-methylurea], which IC50 is on record?
**A.** 5420 nM

**Q.** CNC(=O)Nc1ccc(-c2cnc3c(NCCNC(C)=O)nc4ccc(F)cc4n23)cc1 [Example 2-66, N-{2-[(8-fluoro-1-{4-[(methylcarbamoyl)amino]phenyl}imidazo[1,2-a]quinoxalin-4-yl)amino]ethyl}acetamide] was tested. Which IC50 did it give?
**A.** 11800 nM

**Q.** For CNC(=O)Nc1ccc(-c2cnc3c(NCCCn4ccnc4)nc4ccc(F)cc4n23)cc1 [Example 2-67, 1-[4-(8-fluoro-4-{[3-(1H-imidazol-1-yl)propyl]amino}imidazo[1,2-a]quinoxalin-1-yl)phenyl]-3-methylurea], which IC50 is on record?
**A.** 3130 nM

**Q.** How did the IC50 turn out when CNC(=O)Nc1ccc(-c2cnc3c(NCc4cccnc4)nc4ccc(F)cc4n23)cc1 [Example 2-68, 1-(4-{8-fluoro-4-[(pyridin-3-ylmethyl)amino]imidazo[1,2-a]quinoxalin-1-yl}phenyl)-3-methylurea] was run?
**A.** 2970 nM

**Q.** CNC(=O)Nc1ccc(-c2cnc3c(NCc4ccncc4)nc4ccc(F)cc4n23)cc1 [Example 2-69, 1-(4-{8-fluoro-4-[(pyridin-4-ylmethyl)amino]imidazo[1,2-a]quinoxalin-1-yl}phenyl)-3-methylurea] was tested. Which IC50 did it give?
**A.** 3700 nM

**Q.** Which IC50 does the source give for CNC(=O)Nc1ccc(-c2cnc3c(NCc4ccco4)nc4ccc(F)cc4n23)cc1 [Example 2-70, 1-(4-{8-fluoro-4-[(furan-2-ylmethyl)amino]imidazo[1,2-a]quinoxalin-1-yl}phenyl)-3-methylurea] here?
**A.** 5080 nM

**Q.** Which IC50 does the source give for CNC(=O)Nc1ccc(-c2cnc3c(NCCCOC)nc4ccc(F)cc4n23)cc1 [Example 2-71, 1-(4-{8-fluoro-4-[(3-methoxypropyl)amino]imidazo[1,2-a]quinoxalin-1-yl}phenyl)-3-methylurea] here?
**A.** 4950 nM

**Q.** CNC(=O)Nc1ccc(-c2cnc3c(NCc4cnn(C)c4)nc4ccc(F)cc4n23)cc1 [Example 2-72, 1-[4-(8-fluoro-4-{[(1-methyl-1H-pyrazol-4-yl)methyl]amino}imidazo[1,2-a]quinoxalin-1-yl)phenyl]-3-methylurea] was tested. Which IC50 did it give?
**A.** 2490 nM

**Q.** For CNC(=O)Nc1ccc(-c2cnc3c(NCCS(N)(=O)=O)nc4ccc(F)cc4n23)cc1 [Example 2-73, 2-[(8-fluoro-1-{4-[(methylcarbamoyl)amino]phenyl}imidazo[1,2-a]quinoxalin-4-yl)amino]ethanesulfonamide], which IC50 is on record?
**A.** 9910 nM

**Q.** With CNC(=O)Nc1ccc(-c2cnc3c(NCC(O)CO)nc4ccc(F)cc4n23)cc1 (stereo not drawn) [Example 2-74, 1-(4-{4-[(2,3-dihydroxypropyl)amino]-8-fluoroimidazo[1,2-a]quinoxalin-1-yl}phenyl)-3-methylurea] as the compound, how does the IC50 read?
**A.** 10100 nM

**Q.** How did the IC50 turn out when CCCNc1nc2ccc(F)cc2n2c(-c3ccc(C(=O)NC4CC4)c(Cl)c3)cnc12 [Example 2-75, 2-chloro-N-cyclopropyl-4-[8-fluoro-4-(propylamino)imidazo[1,2-a]quinoxalin-1-yl]benzamide] was run?
**A.** 1080 nM

**Q.** For O=C(NC1CC1)c1ccc(-c2cnc3c(NCCCN4CCOCC4)nc4ccc(F)cc4n23)cc1Cl [Example 2-76, 2-chloro-N-cyclopropyl-4-(8-fluoro-4-{[3-(morpholin-4-yl)propyl]amino}imidazo[1,2-a]quinoxalin-1-yl)benzamide], which IC50 is on record?
**A.** 10900 nM

**Q.** With O=C(NC1CC1)c1ccc(-c2cnc3c(NCCCN4CCCC4=O)nc4ccc(F)cc4n23)cc1Cl [Example 2-77, 2-chloro-N-cyclopropyl-4-(8-fluoro-4-{[3-(2-oxopyrrolidin-1-yl)propyl]amino}imidazo[1,2-a]quinoxalin-1-yl)benzamide] as the compound, how does the IC50 read?
**A.** 10100 nM

**Q.** How did the IC50 turn out when COCCNc1nc2ccc(F)cc2n2c(-c3ccc(C(=O)NC4CC4)c(Cl)c3)cnc12 [Example 2-78, 2-chloro-N-cyclopropyl-4-{8-fluoro-4-[(2-methoxyethyl)amino]imidazo[1,2-a]quinoxalin-1-yl}benzamide] was run?
**A.** 6700 nM

**Q.** For O=C(NC1CC1)c1ccc(-c2cnc3c(NCCCCO)nc4ccc(F)cc4n23)cc1Cl [Example 2-79, 2-chloro-N-cyclopropyl-4-{8-fluoro-4-[(4-hydroxybutyl)amino[imidazo]1,2-a]quinoxalin-1-yl}benzamide], which IC50 is on record?
**A.** 1330 nM

**Q.** How did the IC50 turn out when O=C(NC1CC1)c1ccc(-c2cnc3c(NCCCO)nc4ccc(F)cc4n23)cc1Cl [Example 2-80, 2-chloro-N-cyclopropyl-4-{8-fluoro-4-[(3-hydroxypropyl)amino]imidazo[1,2-a]quinoxalin-1-yl}benzamide] was run?
**A.** 3040 nM

**Q.** For O=C(NC1CC1)c1ccc(-c2cnc3c(NCc4cccnc4)nc4ccc(F)cc4n23)cc1Cl [Example 2-81, 2-chloro-N-cyclopropyl-4-{8-fluoro-4-[(pyridin-3-ylmethyl)amino]imidazo[1,2-a]quinoxalin-1-yl}benzamide], which IC50 is on record?
**A.** 1420 nM

**Q.** How did the IC50 turn out when O=C(NC1CC1)c1ccc(-c2cnc3c(NCc4ccncc4)nc4ccc(F)cc4n23)cc1Cl [Example 2-82, 2-chloro-N-cyclopropyl-4-{8-fluoro-4-[(pyridin-4-ylmethyl)amino]imidazo[1,2-a]quinoxalin-1-yl}benzamide] was run?
**A.** 1090 nM

**Q.** For COCCCNc1nc2ccc(F)cc2n2c(-c3ccc(C(=O)NC4CC4)c(Cl)c3)cnc12 [Example 2-83, 2-chloro-N-cyclopropyl-4-{8-fluoro-4-[(3-methoxypropyl)amino]imidazo[1,2-a]quinoxalin-1-yl}benzamide], which IC50 is on record?
**A.** 6700 nM

**Q.** CC(C)(C)OC(=O)NCCCNc1nc2ccc(F)cc2n2c(-c3ccc(C(=O)NC4CC4)c(Cl)c3)cnc12 [Example 2-84, tert-butyl [3-({1-[3-chloro-4-(cyclopropylcarbamoyl)phenyl]-8-fluoroimidazo[1,2-a]quinoxalin-4-yl}amino)propyl]carbamate] was tested. Which IC50 did it give?
**A.** 2880 nM

**Q.** Cn1nccc1CNc1nc2ccc(F)cc2n2c(-c3ccc(C(=O)NC4CC4)c(Cl)c3)cnc12 [Example 2-85, 2-chloro-N-cyclopropyl-4-(8-fluoro-4-{[(1-methyl-1H-pyrazol-5-yl)methyl]amino}imidazo[1,2-a]quinoxalin-1-yl)benzamide] was tested. Which IC50 did it give?
**A.** 761 nM

**Q.** For Cn1cc(CNc2nc3ccc(F)cc3n3c(-c4ccc(C(=O)NC5CC5)c(Cl)c4)cnc23)cn1 [Example 2-86, 2-chloro-N-cyclopropyl-4-(8-fluoro-4-{[(1-methyl-1H-pyrazol-4-yl)methyl]amino}imidazo[1,2-a]quinoxalin-1-yl)benzamide], which IC50 is on record?
**A.** 1640 nM

**Q.** With CCCNc1nc2cc(F)c(F)cc2n2c(-c3ccc(C(=O)NC4CC4)cc3)cnc12 [Example 2-88, N-cyclopropyl-4-[7,8-difluoro-4-(propylamino)imidazo[1,2-a]quinoxalin-1-yl]benzamide] as the compound, how does the IC50 read?
**A.** 28.6 nM

**Q.** For O=C(NC1CC1)c1ccc(-c2cnc3c(NCCO)nc4cc(F)c(F)cc4n23)cc1 [Example 2-89, N-cyclopropyl-4-{7,8-difluoro-4-[(2-hydroxyethyl)amino]imidazo[1,2-a]quinoxalin-1-yl}benzamide], which IC50 is on record?
**A.** 286 nM

**Q.** With O=C(NC1CC1)c1ccc(-c2cnc3c(NCCCN4CCOCC4)nc4cc(F)c(F)cc4n23)cc1 [Example 2-90, N-cyclopropyl-4-(7,8-difluoro-4-{[3-(morpholin-4-yl)propyl]amino}imidazo[1,2-a]quinoxalin-1-yl)benzamide] as the compound, how does the IC50 read?
**A.** 438 nM

**Q.** CC(C)CCNc1nc2cc(F)c(F)cc2n2c(-c3ccc(C(=O)NC4CC4)cc3)cnc12 [Example 2-91, N-cyclopropyl-4-{7,8-difluoro-4-[(3-methylbutyl)amino]imidazo[1,2-a]quinoxalin-1-yl}benzamide] was tested. Which IC50 did it give?
**A.** 55.5 nM

**Q.** With O=C(NC1CC1)c1ccc(-c2cnc3c(NCc4cccc(F)c4)nc4cc(F)c(F)cc4n23)cc1 [Example 2-92, N-cyclopropyl-4-{7,8-difluoro-4-[(3-fluorobenzyl)amino]imidazo[1,2-a]quinoxalin-1-yl}benzamide] as the compound, how does the IC50 read?
**A.** 143 nM

**Q.** O=C(NC1CC1)c1ccc(-c2cnc3c(NCCCN4CCCC4=O)nc4cc(F)c(F)cc4n23)cc1 [Example 2-93, N-cyclopropyl-4-(7,8-difluoro-4-{[3-(2-oxopyrrolidin-1-yl)propyl]amino}imidazo[1,2-a]quinoxalin-1-yl)benzamide] was tested. Which IC50 did it give?
**A.** 382 nM

**Q.** COCCNc1nc2cc(F)c(F)cc2n2c(-c3ccc(C(=O)NC4CC4)cc3)cnc12 [Example 2-94, N-cyclopropyl-4-{7,8-difluoro-4-[(2-methoxyethyl)amino]imidazo[1,2-a]quinoxalin-1-yl}benzamide] was tested. Which IC50 did it give?
**A.** 161 nM
